Like-named read-outs stand apart in the source and are kept apart here.
Assays:
[1] = molecular target: T1, PfPKG (Plasmodium falciparum, UniProt Q8I719); settings: data unpublished
[2] = system: panel of human kinases
[3] = system: Plasmodium falciparum; assay: hypoxanthine incorporation assay; format: cell-based
[4] = molecular target: T1, PfPKG; settings: cited from earlier work
[5] = system: Plasmodium falciparum; settings: cited from earlier work

T1 sequence (Q8I719 whole entry): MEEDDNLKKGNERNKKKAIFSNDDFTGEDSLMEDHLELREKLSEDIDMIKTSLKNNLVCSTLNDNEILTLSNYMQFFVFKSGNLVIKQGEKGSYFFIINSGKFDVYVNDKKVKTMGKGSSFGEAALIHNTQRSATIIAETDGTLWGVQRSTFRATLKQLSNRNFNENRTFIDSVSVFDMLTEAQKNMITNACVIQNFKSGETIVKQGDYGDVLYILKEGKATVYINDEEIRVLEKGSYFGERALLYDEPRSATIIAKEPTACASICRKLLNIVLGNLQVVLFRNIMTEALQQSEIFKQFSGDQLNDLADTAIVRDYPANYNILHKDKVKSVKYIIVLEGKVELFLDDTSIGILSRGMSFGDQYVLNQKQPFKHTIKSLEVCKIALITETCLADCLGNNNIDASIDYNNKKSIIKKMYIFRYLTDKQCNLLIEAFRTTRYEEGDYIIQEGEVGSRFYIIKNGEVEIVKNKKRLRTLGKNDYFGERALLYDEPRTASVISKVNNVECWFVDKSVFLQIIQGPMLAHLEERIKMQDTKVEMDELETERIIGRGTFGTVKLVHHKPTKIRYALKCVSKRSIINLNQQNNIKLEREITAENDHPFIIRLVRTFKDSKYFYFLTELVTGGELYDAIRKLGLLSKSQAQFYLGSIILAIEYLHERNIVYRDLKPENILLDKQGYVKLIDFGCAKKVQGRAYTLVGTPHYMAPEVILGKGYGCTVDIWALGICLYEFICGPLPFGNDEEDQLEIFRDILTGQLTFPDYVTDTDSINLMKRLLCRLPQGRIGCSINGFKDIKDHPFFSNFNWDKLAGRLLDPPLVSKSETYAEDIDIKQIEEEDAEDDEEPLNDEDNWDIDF

## CN1CCC(c2cc(-c3ccncc3)c(-c3ccc(F)cc3)[nH]2)CC1 [compound 1]
[1]
  potency in biochemical assay against PfPKG: low nanomolar potencies
[2]
  kinase selectivity (other human kinases): poor kinase selectivity
[3]; data unpublished
  potency in HXI cell viability assay: moderate potency

## CN(C)Cc1ccn2c(-c3ccnc(N)n3)c(-c3ccc(F)cc3)nc2c1 [compound 2]
[4]
  potency in biochemical assay against PfPKG: low nanomolar potencies
[5]
  potency in HXI cell viability assay: moderate potency

## CN1CCC(c2nc(-c3ccc(F)c(NS(C)(=O)=O)c3)c(-c3ccnc(NCC4CC4)n3)s2)CC1 [compound 23]
[3]; versus compound 1
  improvement in cellular potency over compound 1: 4 fold
